Measurements taken from patent US20200377545A1, “NOVEL ANTI-TUMOR COMPOUND AND APPLICATION THEREOF IN PREPARING ANTI-TUMOR DRUGS” (HANGZHOU XINGAO BIOTECHNOLOGY CO., LTD, priority 2018, published 2020).

Columns and labels:
Type in all cases: in vivo
[1] = test system: mouse colorectal cancer cell line CT26; experiment: Subcutaneous transplanted tumor of mouse colorectal cancer cell CT26 in mice; settings: for Mean tumor weight (g) / Mean tumor inhibition rate (%): BalB/C mouse, CT26 tumor, once every two days for 20 days, cGAMP 5 mg/kg subcutaneous, oxaliplatin 2 mg/kg oral, platinum complexes 6 mg/kg oral; for Mean tumor weight (g): n = 10, mean ± SD; for Mean tumor inhibition rate (%): vs negative control group; for Inhibition of the growth of subcutaneous transplanted tumors (result in words): summary statement for all four tumor models (Tables 1-4), 20 days after administration, tumor weights significantly lower than negative control (P<0.05, P<0.01)
Description: (§1) BALB/c ordinary mice, male, 18-20 g in weight, 6-8 weeks old, SPF grade, purchased from Shanghai SLAC Laboratory Animal Co., Ltd.[Laboratory Animal Quality Certificate Number: SCXK (Shanghai) 2007-0005].
(§2) Mice are orally administrated, and [cis-Pt(NH3)2(cGAMP)] and the tetravalent platinum complex cis-[Pt(cGAMP)(NH3)2(Cl)(OH)] are both set to be 6 mg/kg in one dose group.
(§3) Positive control: cGAMP, 5 mg/kg in dose (subcutaneous) oxaliplatin, 2 mg/kg in dose (oral)
(§4) Administration routes: control group: cGAMP, 5 mg/kg in dose (subcutaneous)
(§5) Oxaliplatin, 2 mg/kg in dose (oral);
(§6) Immune activator platinum complex, 6 mg/kg in dose (oral)
(§7) Administration volume: 100 μl/animal; number of times of administration: continuous administration for 20 days, once every two days.
(§8) Mouse colorectal cancer cell line CT26, mouse Lewis lung cancer cell line LL/2, human ovarian cancer cell line SK-OV-3, and human melanoma cell line A375, which all purchased from the Cell Bank of the Chinese Academy of Sciences.
(§9) The 5 groups are administered once every two days for 20 consecutive days. 20 days later, the mice are killed and the tumors are weighed. Tumor inhibition rate=[1−mean tumor weight of experimental group/mean tumor weight of group A)]×100%.
(§10) Data is expressed with x±s, and processed with SPSS10.0 software. The significance of the difference between tumor weights of all groups is compared by a one-way ANOVA test. The significance level a=0.05.

[2] = test system: mouse Lewis lung cancer cell line LL/2; experiment: Subcutaneous transplanted tumor of mouse Lewis lung cancer cell line LL-2 in mice; settings: C57 mouse, LL-2 tumor, once every two days for 20 days, cGAMP 5 mg/kg subcutaneous, oxaliplatin 2 mg/kg oral, platinum complexes 6 mg/kg oral; for Mean tumor weight (g): n = 10, mean ± SD; for Mean tumor inhibition rate (%): vs negative control group
Description: as §2, §3, §4, §5, §6, §7, §8, §9, §10

[3] = test system: human melanoma cell line A375; experiment: Mouse subcutaneous transplanted tumor of human melanoma cell line A375; settings: once every two days for 20 days, cGAMP 5 mg/kg subcutaneous, oxaliplatin 2 mg/kg oral, platinum complexes 6 mg/kg oral; for Mean tumor weight (g): n = 10, mean ± SD; for Mean tumor inhibition rate (%): vs negative control group
Description: as §1, §2, §3, §4, §5, §6, §7, §8, §9, §10

[4] = test system: human ovarian cancer cell line SK-OV-3; experiment: Mouse subcutaneous transplanted tumor of human ovarian cancer cell line SK-OV-3; settings: SK-OV-3 tumor, once every two days for 20 days, cGAMP 5 mg/kg subcutaneous, oxaliplatin 2 mg/kg oral, platinum complexes 6 mg/kg oral; for Mean tumor weight (g): n = 10, mean ± SD; for Mean tumor inhibition rate (%): vs negative control group
Description: as §1, §2, §3, §4, §5, §6, §7, §8, §9, §10

Compound | Mean tumor weight (g) [1] | Mean tumor inhibition rate (%) [1] [%] | Inhibition of the growth of subcutaneous transplanted tumors (result in words) [1] | Mean tumor weight (g) [2] | Mean tumor inhibition rate (%) [2] [%] | Mean tumor weight (g) [3] | Mean tumor inhibition rate (%) [3] [%] | Mean tumor weight (g) [4] | Mean tumor inhibition rate (%) [4] [%]
O=C1[O][Pt]2([NH][C@@H]3CCCC[C@H]3[NH]2)[O]C1=O [Oxaliplatin, oxaliplatin] | 0.963 ± 0.223 (g) | 57.3 | obviously inhibit the growth of tumors | 0.963 ± 0.223 (g) | 62.4 | 0.989 ± 0.215 (g) | 62.4 | 0.989 ± 0.215 (g) | 62.6
Nc1nc2c(ncn2[C@@H]2O[C@@H]3COP(=O)(O)O[C@H]4[C@@H](O)[C@H](n5cnc6c(N)ncnc65)O[C@@H]4COP(=O)(O)O[C@@H]2[C@@H]3O)c(=O)[nH]1 [cGAMP, Cyclic [G(2′,5′)pA(3′,5′)p]] | 0.840 ± 0.218 (g) | 62.8 | obviously inhibit the growth of tumors | 0.980 ± 0.214 (g) | 56.6 | 0.969 ± 0.216 (g) | 63.0 | 0.997 ± 0.212 (g) | 62.3
cis-[Pt(cGAMP)(NH3)2(Cl)(OH)] [cGAMP-tetravalent cisplatin] | 0.689 ± 0.224 (g) | 69.5 | obviously inhibit the growth of tumors | 0.784 ± 0.232 (g) | 69.4 | 0.794 ± 0.224 (g) | 69.8 | 0.813 ± 0.226 (g) | 69.3
cis-[Pt(cGAMP)(NH3)2] [cGAMP-cisplatin] | 0.648 ± 0.216 (g) | 71.3 | obviously inhibit the growth of tumors | 0.758 ± 0.226 (g) | 70.4 | 0.786 ± 0.218 (g) | 70.1 | 0.789 ± 0.218 (g) | 70.2
